# Source: ChEMBL document CHEMBL5506023, “Design, Synthesis, and Evaluation of Dihydropyrimidine Derivatives as Selective PDE1 Inhibitors for the Treatment of Liver Fibrosis” (J Med Chem, 2024)
# Active and inactive are the calls of the source. No cut-off for these calls is given here.
# Key:
# Rattus norvegicus [1] = assay: Antifibrotic activity against bile duct ligation induced Sprague-Dawley rat liver fibrosis model assessed as increase in cAMP level in liver at 2.5 mg/kg,ip administrated once daily for 21 days by ELISA; type: functional, organism-based; conditions: time 21.0 day
# [2] = molecular target: T1, cGMP-inhibited 3',5'-cyclic phosphodiesterase 3A (Homo sapiens, UniProt Q14432); assay: Inhibition of PDE3A (679 to 1087 residues) (unknown origin) using 3H-cAMP as substrate
# Rattus norvegicus [3] = assay: Antifibrotic activity against bile duct ligation induced Sprague-Dawley rat liver fibrosis model assessed as reduction in AST level at 2.5 mg/kg,ip administrated once daily for 21 days; type: functional, organism-based; conditions: time 21.0 day
# [4] = molecular target: Dual specificity calcium/calmodulin-dependent 3',5'-cyclic nucleotide phosphodiesterase 1C (Homo sapiens, UniProt Q14123); assay: Inhibition of PDE1C2 (147 to 531 residues) (unknown origin) using 3H-cGMP as substrate incubated for 15 mins by liquid scintillation counter analysis
# [5] = Selectivity index, ratio of IC50 for inhibition of PDE1C2 (147 to 531 residues) (unknown origin) using 3H-cGMP as substrate to IC50 for inhibition of PDE2A (580 to 919 residues) (unknown origin) using 3H-cGMP as substrate
# Cytochrome P450 2C19 = Cytochrome P450 2C19 (Homo sapiens, UniProt P33261); assay: Inhibition of CYP2C19 in human liver microsomes in presence of NADPH; type: ADME, Microsome
# [6] = molecular target: T2, High affinity 3',5'-cyclic-AMP phosphodiesterase 7A (Homo sapiens, UniProt Q13946); assay: Inhibition of PDE7A (130 to 482 residues) (unknown origin) using 3H-cAMP as substrate at 5000 nM relative to control
# [7] = molecular target: 3',5'-cyclic-AMP phosphodiesterase 4D (Homo sapiens, UniProt Q08499); assay: Inhibition of PDE4D (86 to 413 residues) (unknown origin) using 3H-cAMP as substrate
# [8] = molecular target: cGMP-dependent 3',5'-cyclic phosphodiesterase (Homo sapiens, UniProt O00408); assay: Inhibition of PDE2A (580 to 919 residues) (unknown origin) using 3H-cGMP as substrate
# [9] = molecular target: T2, High affinity 3',5'-cyclic-AMP phosphodiesterase 7A; assay: Inhibition of PDE7A (130 to 482 residues) (unknown origin) using 3H-cAMP as substrate
# [10] = Selectivity index, ratio of IC50 for inhibition of PDE1C2 (147 to 531 residues) (unknown origin) using 3H-cGMP as substrate to IC50 for inhibition of PDE4D (86 to 413 residues) (unknown origin) using 3H-cAMP as substrate
# Rattus norvegicus [11] = assay: Antifibrotic activity against bile duct ligation induced Sprague-Dawley rat liver fibrosis model assessed as reduction in liver damage at 2.5 mg/kg,ip administrated once daily for 21 days by hematoxylin and eosin staining based analysis; type: functional, organism-based; conditions: time 21.0 day
# [12] = Selectivity index, ratio of IC50 for inhibition of PDE1C2 (147 to 531 residues) (unknown origin) using 3H-cGMP as substrate to IC50 for inhibition of PDE5A (535 to 860 residues) (unknown origin) using 3H-cGMP as substrate
# LX-2 [13] = assay: Antifibrotic activity against TGF-beta induced human LX-2 cell activation assessed as reduction in cell proliferation at 2.5 to 10 uM incubated for 48 hrs by Edu staining based analysis; type: functional; conditions: dose 2.5-10 µM
# [14] = Half life in Sprague-Dawley rat at 2.5 mg/kg,iv administration; type: ADME, organism-based; conditions: in vivo
# Cytochrome P450 2C9 = Cytochrome P450 2C9 (Homo sapiens, UniProt P11712); assay: Inhibition of CYP2C9 in human liver microsomes in presence of NADPH; type: ADME, Microsome
# [15] = Selectivity index, ratio of IC50 for inhibition of PDE1C2 (147 to 531 residues) (unknown origin) using 3H-cGMP as substrate to IC50 for inhibition of PDE10A (449 to 770 residues) (unknown origin) using 3H-cAMP as substrate
# Rattus norvegicus [16] = assay: Antifibrotic activity against bile duct ligation induced Sprague-Dawley rat liver fibrosis model assessed as reduction in total bile acid level at 2.5 mg/kg,ip administrated once daily for 21 days; type: functional, organism-based; conditions: time 21.0 day
# LX-2 [17] = assay: Antifibrotic activity against TGF-beta induced human LX-2 cell activation assessed as downregulation of collagen-I expression incubated for 48 hrs by Western blotting analysis; type: functional, cell-based
# [18] = molecular target: T1, cGMP-inhibited 3',5'-cyclic phosphodiesterase 3A; assay: Inhibition of PDE3A (679 to 1087 residues) (unknown origin) using 3H-cAMP as substrate at 5000 nM relative to control
# LX-2 [19] = assay: Antifibrotic activity against TGF-beta induced human LX-2 cell activation assessed as downregulation of alpha-SMA expression incubated for 48 hrs by Western blotting analysis; type: functional, cell-based
# [20] = Selectivity index, ratio of IC50 for inhibition of PDE1C2 (147 to 531 residues) (unknown origin) using 3H-cGMP as substrate to IC50 for inhibition of PDE7A (130 to 482 residues) (unknown origin) using 3H-cAMP as substrate
# [21] = Observed volume of distribution at steady state in Sprague-Dawley rat at 2.5 mg/kg,iv administration; type: ADME, organism-based; conditions: in vivo, read-out: Vdss
# Rattus norvegicus [22] = assay: Antifibrotic activity against bile duct ligation induced Sprague-Dawley rat liver fibrosis model assessed as reduction in ALT level at 2.5 mg/kg,ip administrated once daily for 21 days; type: functional, organism-based; conditions: time 21.0 day
# [23] = Half life in rat liver microsomes at 1.5 uM; type: ADME, Microsome
# Cytochrome P450 2D6 = Cytochrome P450 2D6 (Homo sapiens, UniProt P10635); assay: Inhibition of CYP2D6 in human liver microsomes in presence of NADPH; type: ADME, Microsome
# [24] = molecular target: cGMP-specific 3',5'-cyclic phosphodiesterase (Homo sapiens, UniProt O76074); assay: Inhibition of PDE5A (535 to 860 residues) (unknown origin) using 3H-cGMP as substrate
# [25] = Cmax in Sprague-Dawley rat at 2.5 mg/kg,iv administration; type: ADME, organism-based; conditions: in vivo
# [26] = molecular target: cAMP and cAMP-inhibited cGMP 3',5'-cyclic phosphodiesterase 10A (Homo sapiens, UniProt Q9Y233); assay: Inhibition of PDE10A (449 to 770 residues) (unknown origin) using 3H-cAMP as substrate
# LX-2 [27] = assay: Antifibrotic activity against TGF-beta induced human LX-2 cell activation assessed as downregulation of fibronectin expression incubated for 48 hrs by Western blotting analysis; type: functional, cell-based
# [28] = Selectivity index, ratio of IC50 for inhibition of PDE1C2 (147 to 531 residues) (unknown origin) using 3H-cGMP as substrate to IC50 for inhibition of PDE3A (679 to 1087 residues) (unknown origin) using 3H-cAMP as substrate
# [29] = molecular target: High affinity cGMP-specific 3',5'-cyclic phosphodiesterase 9A (Homo sapiens, UniProt O76083); assay: Inhibition of PDE9A (181 to 506 residues) (unknown origin) using 3H-cGMP as substrate
# [30] = Selectivity index, ratio of IC50 for inhibition of PDE1C2 (147 to 531 residues) (unknown origin) using 3H-cGMP as substrate to IC50 for inhibition of PDE8A (480 to 820 residues) (unknown origin) using 3H-cAMP as substrate
# T2 sequence (Q13946 whole entry, the tested form may be a part): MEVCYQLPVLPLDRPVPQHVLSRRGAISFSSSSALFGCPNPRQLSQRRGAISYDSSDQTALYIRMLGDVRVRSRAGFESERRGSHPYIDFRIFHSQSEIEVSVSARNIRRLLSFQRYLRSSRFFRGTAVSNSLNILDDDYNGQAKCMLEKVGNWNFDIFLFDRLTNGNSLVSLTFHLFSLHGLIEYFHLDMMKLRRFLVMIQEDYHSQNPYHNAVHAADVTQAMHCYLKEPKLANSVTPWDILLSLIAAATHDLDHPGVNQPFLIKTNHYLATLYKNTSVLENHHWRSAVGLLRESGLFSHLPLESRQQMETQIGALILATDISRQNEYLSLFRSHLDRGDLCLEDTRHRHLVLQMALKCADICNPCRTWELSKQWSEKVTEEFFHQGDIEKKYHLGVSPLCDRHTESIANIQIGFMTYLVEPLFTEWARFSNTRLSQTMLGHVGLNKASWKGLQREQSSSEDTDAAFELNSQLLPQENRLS
# T1 sequence (Q14432 whole entry, the tested form may be a part): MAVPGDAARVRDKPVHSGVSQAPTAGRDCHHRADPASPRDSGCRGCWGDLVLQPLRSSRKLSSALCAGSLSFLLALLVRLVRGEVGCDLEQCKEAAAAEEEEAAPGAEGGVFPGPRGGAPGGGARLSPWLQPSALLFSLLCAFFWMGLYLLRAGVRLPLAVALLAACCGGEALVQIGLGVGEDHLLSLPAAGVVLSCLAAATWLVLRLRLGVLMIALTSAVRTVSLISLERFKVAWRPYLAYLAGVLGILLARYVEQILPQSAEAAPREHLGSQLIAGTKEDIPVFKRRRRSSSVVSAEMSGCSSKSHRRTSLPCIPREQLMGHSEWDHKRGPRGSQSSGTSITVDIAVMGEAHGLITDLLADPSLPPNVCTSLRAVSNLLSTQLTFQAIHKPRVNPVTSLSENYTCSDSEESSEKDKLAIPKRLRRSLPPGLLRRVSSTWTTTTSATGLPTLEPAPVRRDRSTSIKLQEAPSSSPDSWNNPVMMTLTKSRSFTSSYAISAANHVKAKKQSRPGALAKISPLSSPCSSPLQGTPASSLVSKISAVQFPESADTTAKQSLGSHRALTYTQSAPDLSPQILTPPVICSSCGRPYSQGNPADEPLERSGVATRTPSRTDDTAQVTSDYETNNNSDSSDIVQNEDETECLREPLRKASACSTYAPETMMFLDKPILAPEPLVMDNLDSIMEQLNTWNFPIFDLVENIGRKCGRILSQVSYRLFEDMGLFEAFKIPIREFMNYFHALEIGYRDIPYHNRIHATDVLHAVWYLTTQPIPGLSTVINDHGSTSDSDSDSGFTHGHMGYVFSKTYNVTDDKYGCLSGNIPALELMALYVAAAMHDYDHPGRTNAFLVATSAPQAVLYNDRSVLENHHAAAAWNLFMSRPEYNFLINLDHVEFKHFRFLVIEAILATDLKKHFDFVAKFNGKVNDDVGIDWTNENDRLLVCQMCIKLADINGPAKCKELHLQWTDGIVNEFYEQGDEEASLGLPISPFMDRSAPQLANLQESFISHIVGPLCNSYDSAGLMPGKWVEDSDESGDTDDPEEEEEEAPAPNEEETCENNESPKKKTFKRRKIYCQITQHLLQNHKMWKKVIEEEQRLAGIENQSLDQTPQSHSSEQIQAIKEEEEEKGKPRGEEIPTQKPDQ
# 3',5'-cyclic-AMP phosphodiesterase 4D, sequence (Q08499 whole entry, the tested form may be a part): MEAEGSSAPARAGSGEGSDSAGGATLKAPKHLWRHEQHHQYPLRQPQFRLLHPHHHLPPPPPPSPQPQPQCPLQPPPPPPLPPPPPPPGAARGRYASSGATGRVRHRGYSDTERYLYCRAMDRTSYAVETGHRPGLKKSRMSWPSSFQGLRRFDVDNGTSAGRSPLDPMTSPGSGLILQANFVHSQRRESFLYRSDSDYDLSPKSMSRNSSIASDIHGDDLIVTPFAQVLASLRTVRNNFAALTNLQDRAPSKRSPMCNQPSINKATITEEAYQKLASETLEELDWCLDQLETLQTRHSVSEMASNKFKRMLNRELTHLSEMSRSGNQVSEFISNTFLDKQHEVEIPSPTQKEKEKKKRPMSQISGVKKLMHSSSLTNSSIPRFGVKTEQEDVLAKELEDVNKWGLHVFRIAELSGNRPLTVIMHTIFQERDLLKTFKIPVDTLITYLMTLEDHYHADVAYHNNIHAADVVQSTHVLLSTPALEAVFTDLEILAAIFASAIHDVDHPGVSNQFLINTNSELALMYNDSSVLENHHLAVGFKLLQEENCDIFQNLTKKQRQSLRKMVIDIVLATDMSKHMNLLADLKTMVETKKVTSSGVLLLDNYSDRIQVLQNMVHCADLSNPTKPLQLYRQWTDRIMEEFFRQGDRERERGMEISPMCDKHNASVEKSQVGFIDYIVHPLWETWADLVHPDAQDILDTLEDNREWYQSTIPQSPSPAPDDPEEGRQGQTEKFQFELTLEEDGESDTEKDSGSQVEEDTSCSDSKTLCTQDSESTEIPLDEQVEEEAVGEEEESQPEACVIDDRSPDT
# Cytochrome P450 2D6, sequence (P10635 whole entry, the tested form may be a part): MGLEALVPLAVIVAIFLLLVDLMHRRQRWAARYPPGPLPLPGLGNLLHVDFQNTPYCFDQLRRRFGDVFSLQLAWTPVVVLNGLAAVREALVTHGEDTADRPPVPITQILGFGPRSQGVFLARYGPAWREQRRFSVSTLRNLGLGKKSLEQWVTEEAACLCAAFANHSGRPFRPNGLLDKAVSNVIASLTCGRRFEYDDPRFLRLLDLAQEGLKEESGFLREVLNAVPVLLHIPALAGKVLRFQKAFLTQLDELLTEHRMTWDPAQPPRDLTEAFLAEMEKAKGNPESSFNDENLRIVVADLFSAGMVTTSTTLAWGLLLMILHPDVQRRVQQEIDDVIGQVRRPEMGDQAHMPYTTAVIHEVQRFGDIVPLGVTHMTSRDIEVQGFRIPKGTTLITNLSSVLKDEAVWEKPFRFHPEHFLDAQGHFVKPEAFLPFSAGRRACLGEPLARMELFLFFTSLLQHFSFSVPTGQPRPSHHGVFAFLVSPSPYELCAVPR
# cAMP and cAMP-inhibited cGMP 3',5'-cyclic phosphodiesterase 10A, sequence (Q9Y233 whole entry, the tested form may be a part): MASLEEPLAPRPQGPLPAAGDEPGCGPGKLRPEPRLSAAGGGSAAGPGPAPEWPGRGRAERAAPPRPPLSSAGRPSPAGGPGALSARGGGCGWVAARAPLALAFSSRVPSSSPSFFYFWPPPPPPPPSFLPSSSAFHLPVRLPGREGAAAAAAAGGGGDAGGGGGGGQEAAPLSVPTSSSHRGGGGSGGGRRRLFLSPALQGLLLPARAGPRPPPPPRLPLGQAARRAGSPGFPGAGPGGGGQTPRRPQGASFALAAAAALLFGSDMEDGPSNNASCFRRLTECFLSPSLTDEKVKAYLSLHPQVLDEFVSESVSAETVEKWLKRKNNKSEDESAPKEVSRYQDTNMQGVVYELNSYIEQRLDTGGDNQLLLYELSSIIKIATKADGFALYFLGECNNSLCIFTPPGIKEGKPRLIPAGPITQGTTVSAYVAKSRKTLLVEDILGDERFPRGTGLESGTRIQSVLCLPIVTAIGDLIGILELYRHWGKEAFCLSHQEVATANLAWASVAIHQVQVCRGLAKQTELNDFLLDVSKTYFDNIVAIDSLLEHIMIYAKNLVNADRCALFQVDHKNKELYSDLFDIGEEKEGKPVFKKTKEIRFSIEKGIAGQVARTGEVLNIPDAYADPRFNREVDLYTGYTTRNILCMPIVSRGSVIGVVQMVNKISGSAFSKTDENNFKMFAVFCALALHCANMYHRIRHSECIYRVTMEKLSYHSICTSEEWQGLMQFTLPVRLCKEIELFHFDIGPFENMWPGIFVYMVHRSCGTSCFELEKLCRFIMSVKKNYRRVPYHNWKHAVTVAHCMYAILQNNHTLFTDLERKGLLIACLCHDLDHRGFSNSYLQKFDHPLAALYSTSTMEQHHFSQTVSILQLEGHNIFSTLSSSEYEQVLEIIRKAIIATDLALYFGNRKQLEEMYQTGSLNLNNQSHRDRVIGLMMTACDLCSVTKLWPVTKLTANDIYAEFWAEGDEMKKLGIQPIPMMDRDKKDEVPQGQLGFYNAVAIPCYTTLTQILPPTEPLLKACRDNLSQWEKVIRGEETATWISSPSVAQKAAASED
# Dual specificity calcium/calmodulin-dependent 3',5'-cyclic nucleotide phosphodiesterase 1C, sequence (Q14123 whole entry, the tested form may be a part): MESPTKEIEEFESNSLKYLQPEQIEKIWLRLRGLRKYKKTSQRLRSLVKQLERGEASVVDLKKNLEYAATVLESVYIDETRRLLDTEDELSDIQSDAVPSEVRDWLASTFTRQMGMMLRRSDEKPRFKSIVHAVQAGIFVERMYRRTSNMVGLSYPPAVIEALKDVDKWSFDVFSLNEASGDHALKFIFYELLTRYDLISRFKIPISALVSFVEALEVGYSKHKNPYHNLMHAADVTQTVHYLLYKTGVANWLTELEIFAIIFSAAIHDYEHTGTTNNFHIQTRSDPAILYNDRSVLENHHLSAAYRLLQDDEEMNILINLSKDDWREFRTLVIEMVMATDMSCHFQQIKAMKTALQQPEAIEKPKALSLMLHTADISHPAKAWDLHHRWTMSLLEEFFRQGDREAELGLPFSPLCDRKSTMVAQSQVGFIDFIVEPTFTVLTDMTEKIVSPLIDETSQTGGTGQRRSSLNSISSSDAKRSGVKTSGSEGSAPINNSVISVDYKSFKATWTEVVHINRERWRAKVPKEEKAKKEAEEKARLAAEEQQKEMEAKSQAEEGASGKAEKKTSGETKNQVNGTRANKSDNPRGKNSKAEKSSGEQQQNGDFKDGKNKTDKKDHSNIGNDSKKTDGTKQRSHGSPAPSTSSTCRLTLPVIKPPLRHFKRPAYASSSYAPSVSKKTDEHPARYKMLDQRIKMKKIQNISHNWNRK
structure (smiles),measurement,setting,value
CC1=C(C(=O)OCC2CCCCC2)C(c2ccc(OC(F)F)c(OCC3CC3)c2)N(C(=O)SCc2ccccc2)C(=O)N1 (stereo not drawn),Activity,Rattus norvegicus [1],Active
same,IC50,[2],> 5000 nM
same,Activity,Rattus norvegicus [3],Active
same,IC50,[4],10 nM
same,Ratio IC50,[5],354
same,IC50,Cytochrome P450 2C19,> 25000 nM
same,inhibition,[6],< 50%
same,IC50,[7],2050 nM
same,IC50,[8],3540 nM
same,IC50,[9],> 5000 nM
same,Ratio IC50,[10],205
same,Activity,Rattus norvegicus [11],Active
same,Ratio IC50,[12],168
same,Activity,LX-2 [13],Active
same,half-life,[14],7.51 h
same,IC50,Cytochrome P450 2C9,> 25000 nM
same,Ratio IC50,[15],60
same,Activity,Rattus norvegicus [16],Active
same,Activity,LX-2 [17],Dose-Dependent Effect
same,inhibition,[18],< 50%
same,Activity,LX-2 [19],Dose-Dependent Effect
same,Ratio IC50,[20],> 500
same,Vd,[21],0.698 L/kg
same,Activity,Rattus norvegicus [22],Active
same,half-life at 1.5 µM,[23],0.235 h
same,IC50,Cytochrome P450 2D6,> 25000 nM
same,IC50,[24],1680 nM
same,Cmax,[25],25000 ng/mL
same,IC50,[26],597 nM
same,Activity,LX-2 [27],Dose-Dependent Effect
same,Ratio IC50,[28],> 500
same,IC50,[29],2100 nM
same,Ratio IC50,[30],176
